The term MIC denotes the least concentration at which growth counts as inhibited. Read a low MIC as a more susceptible organism.

In brackets after ≈: the same amount, converted by molar mass.

The test system of test [1] is Staphylococcus aureus. The experiment in a line: Antibacterial activity against Staphylococcus aureus ATCC 29213 by CLSI M07-A8 protocol based microdilution method. The test is classed as functional. For orientation: In broth dilution the organism is exposed to a series of concentrations in liquid medium.
Test [2] deals with Staphylococcus aureus. The experiment in a line: Antibacterial activity against methicillin-resistant Staphylococcus aureus SA86 by CLSI M07-A8 protocol based microdilution method. The test is classed as functional.

`CC(C)CCC[C@@H]1CC(=O)N[C@@H](CO)C(=O)N[C@H](CC(N)=O)C(=O)N[C@@H](CO)C(=O)NCC(=O)N(C)[C@H](Cc2ccccc2)C(=O)N[C@@H](CC(C)C)C(=O)N[C@H](Cc2c[nH]cn2)C(=O)N[C@@H](CCC(=O)O)C(=O)N[C@H](CC(N)=O)C(=O)N[C@H](Cc2c[nH]c3ccccc23)C(=O)N[C@H](CCCN)C(=O)N(C)[C@@H](C(C)C)C(=O)O1`: the MIC against Staphylococcus aureus [1] and in the test with Staphylococcus aureus [2] was 2 µg/mL (≈ 1.27 µM) throughout.
For `CC(C)CCC[C@@H]1CC(=O)N[C@@H](CO)C(=O)N[C@H](CC(N)=O)C(=O)N[C@@H](CO)C(=O)NCC(=O)N(C)[C@H](Cc2ccccc2)C(=O)N[C@@H](CC(C)C)C(=O)N[C@H](CCCN)C(=O)N[C@@H](CCC(=O)O)C(=O)N[C@H](CC(N)=O)C(=O)N[C@H](C)C(=O)N[C@H](CCCN)C(=O)N(C)[C@@H](C(C)C)C(=O)O1`, the MIC with Staphylococcus aureus [1] and against Staphylococcus aureus [2] was at least 32 µg/mL each time.
As for `CC(C)CCC[C@@H]1CC(=O)N[C@@H](CO)C(=O)N[C@H](CCCCN)C(=O)N[C@@H](CO)C(=O)NCC(=O)N(C)[C@H](Cc2ccccc2)C(=O)N[C@@H](CC(C)C)C(=O)N[C@H](CCCN)C(=O)N[C@@H](CCC(=O)O)C(=O)N[C@H](CC(N)=O)C(=O)N[C@H](Cc2c[nH]c3ccccc23)C(=O)N[C@H](CCCN)C(=O)N(C)[C@@H](C(C)C)C(=O)O1`, the results for the MIC with Staphylococcus aureus [1] and with Staphylococcus aureus [2] were 2 µg/mL (≈ 1.28 µM) and 1 µg/mL (≈ 0.641 µM), respectively.
`CC(C)CCC[C@@H]1CC(=O)N[C@@H](CO)C(=O)N[C@H](CC(N)=O)C(=O)N[C@@H](CO)C(=O)NCC(=O)N(C)[C@H](Cc2ccccc2)C(=O)N[C@@H](CC(C)C)C(=O)N[C@H](CCCN)C(=O)N[C@@H](CCC(=O)O)C(=O)N[C@H](CC(N)=O)C(=O)N[C@H](Cc2c[nH]c3ccccc23)C(=O)N[C@H](CCCCN)C(=O)N(C)[C@@H](C(C)C)C(=O)O1`: the MIC against Staphylococcus aureus [1] amounted to 1 µg/mL (≈ 0.641 µM); against Staphylococcus aureus [2], 2 µg/mL (≈ 1.28 µM).
`CC(C)CCC[C@@H]1CC(=O)N[C@@H](CO)C(=O)N[C@H](CC(N)=O)C(=O)N[C@@H](CO)C(=O)NCC(=O)N(C)[C@H](Cc2ccccc2)C(=O)N[C@@H](CC(C)C)C(=O)N[C@H](C)C(=O)N[C@@H](CCC(=O)O)C(=O)N[C@H](CC(N)=O)C(=O)N[C@H](Cc2c[nH]c3ccccc23)C(=O)N[C@H](CCCN)C(=O)N(C)[C@@H](C(C)C)C(=O)O1`: the MIC against Staphylococcus aureus [1] and with Staphylococcus aureus [2] was at least 32 µg/mL throughout.
For `CC(C)CCC[C@@H]1CC(=O)N[C@@H](CO)C(=O)N[C@H](CC(N)=O)C(=O)N[C@@H](CO)C(=O)NCC(=O)N(C)[C@H](Cc2ccccc2)C(=O)N[C@@H](C)C(=O)N[C@H](CCCN)C(=O)N[C@@H](CCC(=O)O)C(=O)N[C@H](CC(N)=O)C(=O)N[C@H](Cc2c[nH]c3ccccc23)C(=O)N[C@H](CCCN)C(=O)N(C)[C@@H](C(C)C)C(=O)O1`, the MIC against Staphylococcus aureus [1] and in the test on Staphylococcus aureus [2] was at least 32 µg/mL in each case.
As to `CC(C)CCC[C@@H]1CC(=O)N[C@@H](CO)C(=O)N[C@H](CC(N)=O)C(=O)N[C@@H](CO)C(=O)NCC(=O)N(C)[C@H](Cc2ccccc2)C(=O)N[C@@H](CC(C)C)C(=O)N[C@H](CCCN)C(=O)N[C@@H](CCCCN)C(=O)N[C@H](CC(N)=O)C(=O)N[C@H](Cc2c[nH]c3ccccc23)C(=O)N[C@H](CCCN)C(=O)N(C)[C@@H](C(C)C)C(=O)O1`, the figures for the MIC in the test with Staphylococcus aureus [1] and against Staphylococcus aureus [2] were 2 µg/mL (≈ 1.29 µM) and 1 µg/mL (≈ 0.647 µM), respectively.
For `CC(C)CCC[C@@H]1CC(=O)N[C@@H](CCCCN)C(=O)N[C@H](CC(N)=O)C(=O)N[C@@H](CO)C(=O)NCC(=O)N(C)[C@H](Cc2ccccc2)C(=O)N[C@@H](CC(C)C)C(=O)N[C@H](CCCN)C(=O)N[C@@H](CCC(=O)O)C(=O)N[C@H](CC(N)=O)C(=O)N[C@H](Cc2c[nH]c3ccccc23)C(=O)N[C@H](CCCN)C(=O)N(C)[C@@H](C(C)C)C(=O)O1`, the MIC against Staphylococcus aureus [1] and in the test with Staphylococcus aureus [2] was 2 µg/mL (≈ 1.26 µM) in each case.
Take `CC(C)CCC[C@@H]1CC(=O)N[C@@H](CO)C(=O)N[C@H](CC(N)=O)C(=O)N[C@@H](CCCCN)C(=O)NCC(=O)N(C)[C@H](Cc2ccccc2)C(=O)N[C@@H](CC(C)C)C(=O)N[C@H](CCCN)C(=O)N[C@@H](CCC(=O)O)C(=O)N[C@H](CC(N)=O)C(=O)N[C@H](Cc2c[nH]c3ccccc23)C(=O)N[C@H](CCCN)C(=O)N(C)[C@@H](C(C)C)C(=O)O1`: the MIC against Staphylococcus aureus [1] amounted to 4 µg/mL (≈ 2.52 µM); in the test with Staphylococcus aureus [2], 2 µg/mL (≈ 1.26 µM).
Regarding `CC(C)CCC[C@@H]1CC(=O)N[C@@H](CO)C(=O)N[C@H](CC(N)=O)C(=O)N[C@@H](CO)C(=O)NCC(=O)N(C)[C@H](Cc2ccccc2)C(=O)N[C@@H](CCCCN)C(=O)N[C@H](CCCN)C(=O)N[C@@H](CCC(=O)O)C(=O)N[C@H](CC(N)=O)C(=O)N[C@H](Cc2c[nH]c3ccccc23)C(=O)N[C@H](CCCN)C(=O)N(C)[C@@H](C(C)C)C(=O)O1`, the MIC with Staphylococcus aureus [1] and with Staphylococcus aureus [2] was at least 32 µg/mL throughout.
With `CC(C)CCC[C@@H]1CC(=O)N[C@@H](CO)C(=O)N[C@H](CC(N)=O)C(=O)N[C@@H](CO)C(=O)NCC(=O)N(C)[C@H](Cc2ccccc2)C(=O)N[C@@H](CC(C)C)C(=O)N[C@H](CCCN)C(=O)N[C@@H](C)C(=O)N[C@H](CC(N)=O)C(=O)N[C@H](Cc2c[nH]c3ccccc23)C(=O)N[C@H](CCCN)C(=O)N(C)[C@@H](C(C)C)C(=O)O1`, the MIC against Staphylococcus aureus [1] worked out at 1 µg/mL (≈ 0.672 µM); in the test on Staphylococcus aureus [2] it was 0.5 µg/mL (≈ 0.336 µM).
In the same order, the values of `CC(C)CCC[C@@H]1CC(=O)N[C@@H](CO)C(=O)N[C@H](CC(N)=O)C(=O)N[C@@H](CO)C(=O)NCC(=O)N(C)[C@H](Cc2ccccc2)C(=O)N[C@@H](CC(C)C)C(=O)N[C@H](CCCNC(=N)N)C(=O)N[C@@H](CCC(=O)O)C(=O)N[C@H](CC(N)=O)C(=O)N[C@H](Cc2c[nH]c3ccccc23)C(=O)N[C@H](CCCN)C(=O)N(C)[C@@H](C(C)C)C(=O)O1` are 1 µg/mL (≈ 0.629 µM) and 2 µg/mL (≈ 1.26 µM).
Consider `CC(C)CCC[C@@H]1CC(=O)N[C@@H](CO)C(=O)N[C@H](CC(N)=O)C(=O)N[C@@H](CO)C(=O)NCC(=O)N(C)[C@H](Cc2ccccc2)C(=O)N[C@@H](CC(C)C)C(=O)N[C@H](CCCN)C(=O)N[C@@H](CCC(=O)O)C(=O)N[C@H](CCCCN)C(=O)N[C@H](Cc2c[nH]c3ccccc23)C(=O)N[C@H](CCCN)C(=O)N(C)[C@@H](C(C)C)C(=O)O1`, for which the MIC against Staphylococcus aureus [1] and against Staphylococcus aureus [2] was 1 µg/mL (≈ 0.641 µM) throughout.
Turning to `CC(C)CCC[C@@H]1CC(=O)N[C@@H](CO)C(=O)N[C@H](CC(N)=O)C(=O)N[C@@H](CO)C(=O)NCC(=O)N(C)[C@H](Cc2ccccc2)C(=O)N[C@@H](CC(C)C)C(=O)N[C@H](CCCCN)C(=O)N[C@@H](CCC(=O)O)C(=O)N[C@H](CC(N)=O)C(=O)N[C@H](Cc2c[nH]c3ccccc23)C(=O)N[C@H](CCCN)C(=O)N(C)[C@@H](C(C)C)C(=O)O1`, the figures for the MIC in the test with Staphylococcus aureus [1] and against Staphylococcus aureus [2] were 1 µg/mL (≈ 0.641 µM) and 2 µg/mL (≈ 1.28 µM), respectively.
Regarding `CC(C)CCC[C@@H]1CC(=O)N[C@@H](CO)C(=O)N[C@H](CC(N)=O)C(=O)N[C@@H](CO)C(=O)NCC(=O)N(C)[C@H](Cc2ccccc2)C(=O)N[C@@H](CC(C)C)C(=O)N[C@H](CCCN)C(=O)N[C@@H](CCC(=O)O)C(=O)N[C@H](C)C(=O)N[C@H](Cc2c[nH]c3ccccc23)C(=O)N[C@H](CCCN)C(=O)N(C)[C@@H](C(C)C)C(=O)O1`, the MIC against Staphylococcus aureus [1] was 2 µg/mL (≈ 1.33 µM); in the test with Staphylococcus aureus [2] it was 1 µg/mL (≈ 0.665 µM).
Regarding `CC(C)CCC[C@@H]1CC(=O)N[C@@H](CO)C(=O)N[C@H](CC(N)=O)C(=O)N[C@@H](CO)C(=O)NCC(=O)N(C)[C@H](Cc2ccccc2)C(=O)N[C@@H](CC(C)C)C(=O)N[C@H](CCCN)C(=O)N[C@@H](CCC(=O)O)C(=O)N[C@H](CC(N)=O)C(=O)N[C@H](Cc2c[nH]c3ccccc23)C(=O)N[C@H](C)C(=O)N(C)[C@@H](C(C)C)C(=O)O1`, the MIC against Staphylococcus aureus [1] and in the test on Staphylococcus aureus [2] was at least 32 µg/mL throughout.

(Values after ChEMBL document CHEMBL4725375, “Total synthesis and a systematic structure-activity relationship study of WAP-8294A2” (2020).)
